Measurements as given in ChEMBL document CHEMBL5727558, “Organic compounds” (2020).

Columns and labels:
[1] = biological target: Dual specificity calcium/calmodulin-dependent 3',5'-cyclic nucleotide phosphodiesterase 1B (Homo sapiens, UniProt Q01064); assay: (§1) Enzyme Assay: Assay: The following phosphodiesterase enzymes may be used: 3′,5′-cyclic-nucleotide-specific bovine brain phosphodiesterase (Sigma, St. Louis, Mo.) (predominantly PDE1B) and recombinant full length human PDE1A and PDE1B (r-hPDE1A and r-hPDE1B respectively) which may be produced e.g., in HEK or SF9 cells by one skilled in the art. The PDE1 enzyme is reconstituted with 50% glycerol to 2.5 U/ml. One unit of enzyme will hydrolyze 1.0 μmole of 3′,5′-cAMP to 5′-AMP per min at pH 7.5 at 30° C. One part enzyme is added to 1999 parts reaction buffer (30 μM CaCl2, 10 U/ml of calmodulin (Sigma P2277), 10 mM Tris-HCl pH 7.2, 10 mM MgCl2, 0.1% BSA, 0.05% NaN3) to yield a final concentration of 1.25 mU/ml. 99 μl of diluted enzyme solution is added into each well in a flat bottom 96-well polystyrene plate to which 1 μl of test compound dissolved in 100% DMSO is added. The compounds are mixed and pre-incubated with the enzyme for 10 min at room temperature.
[2] = biological target: Dual specificity calcium/calmodulin-dependent 3',5'-cyclic nucleotide phosphodiesterase 1A (Homo sapiens, UniProt P54750); assay: as §1
Dual specificity calcium/calmodulin-dependent 3',5'-cyclic nucleotide phosphodiesterase 1A, sequence (P54750 whole entry): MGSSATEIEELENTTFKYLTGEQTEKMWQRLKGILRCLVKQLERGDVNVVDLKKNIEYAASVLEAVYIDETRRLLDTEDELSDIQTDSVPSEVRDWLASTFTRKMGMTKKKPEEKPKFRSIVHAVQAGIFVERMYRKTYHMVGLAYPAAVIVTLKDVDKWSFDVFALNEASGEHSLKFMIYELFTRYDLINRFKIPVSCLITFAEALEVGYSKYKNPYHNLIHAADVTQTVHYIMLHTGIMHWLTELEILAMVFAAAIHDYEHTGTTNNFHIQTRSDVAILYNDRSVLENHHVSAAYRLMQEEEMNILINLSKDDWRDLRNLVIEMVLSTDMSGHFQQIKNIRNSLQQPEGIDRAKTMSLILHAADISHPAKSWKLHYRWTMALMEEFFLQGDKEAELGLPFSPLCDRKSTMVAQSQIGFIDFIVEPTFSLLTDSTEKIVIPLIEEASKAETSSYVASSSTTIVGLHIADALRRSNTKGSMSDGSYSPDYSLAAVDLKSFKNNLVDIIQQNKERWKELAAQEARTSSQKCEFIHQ

Dual specificity calcium/calmodulin-dependent 3',5'-cyclic nucleotide phosphodiesterase 1B, sequence (Q01064 whole entry): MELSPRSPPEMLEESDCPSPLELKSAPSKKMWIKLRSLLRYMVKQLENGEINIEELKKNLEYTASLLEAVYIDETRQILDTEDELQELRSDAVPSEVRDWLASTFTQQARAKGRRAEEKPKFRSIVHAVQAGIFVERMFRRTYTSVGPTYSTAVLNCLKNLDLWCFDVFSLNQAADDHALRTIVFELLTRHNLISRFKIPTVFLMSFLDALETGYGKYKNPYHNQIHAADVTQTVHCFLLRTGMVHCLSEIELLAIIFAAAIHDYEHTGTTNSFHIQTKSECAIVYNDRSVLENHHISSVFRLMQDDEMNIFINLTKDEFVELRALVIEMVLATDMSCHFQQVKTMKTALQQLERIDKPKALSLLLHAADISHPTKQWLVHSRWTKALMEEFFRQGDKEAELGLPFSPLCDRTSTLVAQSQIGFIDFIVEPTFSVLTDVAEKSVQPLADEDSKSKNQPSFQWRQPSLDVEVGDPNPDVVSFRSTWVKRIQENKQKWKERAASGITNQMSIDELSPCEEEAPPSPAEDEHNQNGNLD

For `CC(C)Sc1c2c(nn1Cc1ccc(-c3cccc(F)n3)cc1)N1CC(C)(C)N=C1N(C)C2=O`, which IC50 [1] is on record?
Its IC50 is 3 µM.

What about the IC50 [2] of the same compound?
Its IC50 is 5 nM.
